Legend:
Format in all cases: in vivo
[1] = tested on: upland rice (Oryza sp., var. Tebonnet, RICE); assay: Pre-emerge test, crop safety; conditions: for phytotoxicity rating RICE (crop damage): pre-emerge, 14 days after application, scale 0-100
Method in brief: (§1)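 Herbicidal damage is scored 0 (none) to 100 (complete plant death) two weeks after a simulated field spray. Rates span 15–1000 g ai/ha, delivered in acetone at 187 l/ha. For post-emergence treatments, plants have 2–3 leaves and the spray carries 0.25% v/v non-ionic surfactant.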

[2] = tested on: field corn (Zea mays L., var. Dekalb 535, CORN); assay: Pre-emerge test, crop safety; conditions: for phytotoxicity rating CORN (crop damage): pre-emerge, 14 days after application, scale 0-100
Method in brief: as §1

[3] = tested on: lambsquarters (Chenopodium album, CHEAL); assay: Post-emerge test, greenhouse herbicide activity screening; conditions: post-emerge, 14 days after application, rating scale 0-100
Method in brief: (§2)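 Plants grown in 10 cm pots of sandy loam mix received acetone-dissolved compounds through a moving flat-fan nozzle. Doses ranged from 15 to 1000 g ai/ha. Pre-emerge pots were seeded one day earlier, post-emerge pots 8–21 days earlier. Fourteen days on, each pot was graded 0–100 for damage.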

[4] = tested on: green foxtail (Setaria viridis, SETVI); assay: as above; conditions: post-emerge, 14 days after application, rating scale 0-100
Method in brief: as §2

[5] = tested on: barnyardgrass (Echinochloa crus-galli, ECHCG); assay: as above; conditions: post-emerge, 14 days after application, rating scale 0-100
Method in brief: as §2

[6] = tested on: redroot pigweed (Amaranthus retroflexus, AMARE); assay: as above; conditions: post-emerge, 14 days after application, rating scale 0-100
Method in brief: as §2

[7] = tested on: velvetleaf (Abutilon theophrasti, ABUTH); assay: as above; conditions: post-emerge, 14 days after application, rating scale 0-100
Method in brief: as §2

[8] = tested on: ivyleaf morningglory (Ipomoea hederacea, IPOHE); assay: as above; conditions: post-emerge, 14 days after application, rating scale 0-100
Method in brief: as §2

[9] = tested on: large crabgrass (Digitaria sanguinalis, DIGSA); assay: as above; conditions: post-emerge, 14 days after application, rating scale 0-100
Method in brief: as §2

[10] = tested on: sicklepod (Cassia obtusifolia, CASOB); assay: as above; conditions: post-emerge, 14 days after application, rating scale 0-100
Method in brief: as §2

[11] = tested on: lambsquarters (Chenopodium album, CHEAL); assay: Pre-emerge test, greenhouse herbicide activity screening; conditions: for phytotoxicity rating CHEAL: pre-emerge, 14 days after application, scale 0-100
Method in brief: as §2

[12] = tested on: green foxtail (Setaria viridis, SETVI); assay: as above; conditions: for phytotoxicity rating SETVI: pre-emerge, 14 days after application, scale 0-100
Method in brief: as §2

[13] = tested on: barnyardgrass (Echinochloa crus-galli, ECHCG); assay: as above; conditions: for phytotoxicity rating ECHCG: pre-emerge, 14 days after application, scale 0-100
Method in brief: as §2

[14] = tested on: velvetleaf (Abutilon theophrasti, ABUTH); assay: as above; conditions: for phytotoxicity rating ABUTH: pre-emerge, 14 days after application, scale 0-100
Method in brief: as §2

[15] = tested on: ivyleaf morningglory (Ipomoea hederacea, IPOHE); assay: as above; conditions: for phytotoxicity rating IPOHE: pre-emerge, 14 days after application, scale 0-100
Method in brief: as §2

[16] = tested on: large crabgrass (Digitaria sanguinalis, DIGSA); assay: as above; conditions: for phytotoxicity rating DIGSA: pre-emerge, 14 days after application, scale 0-100
Method in brief: as §2

[17] = tested on: johnsongrass (Sorghum halepense, SORHA); assay: as above; conditions: for phytotoxicity rating SORHA: pre-emerge, 14 days after application, scale 0-100
Method in brief: as §2

[18] = tested on: sicklepod (Cassia obtusifolia, CASOB); assay: as above; conditions: for phytotoxicity rating CASOB: pre-emerge, 14 days after application, scale 0-100
Method in brief: as §2

[19] = tested on: redroot pigweed (Amaranthus retroflexus, AMARE); assay: as above; conditions: for phytotoxicity rating AMARE: pre-emerge, 14 days after application, scale 0-100
Method in brief: as §1

[20] = tested on: upland rice (Oryza sp., var. Tebonnet, RICE); assay: Post-emerge test, crop safety; conditions: post-emerge, 14 days after application, rating scale 0-100
Method in brief: (§3)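 Each test used a mechanized track sprayer delivering 187 l/ha of acetone solution at 15–1000 g ai/ha. Post-emerge foliage at 2–3 leaves was treated with added 0.25% v/v non-ionic surfactant and bottom-watered only. Injury was assessed on day 14, where 100 means total kill.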

[21] = tested on: field corn (Zea mays L., var. Dekalb 535, CORN); assay: Post-emerge test, crop safety; conditions: post-emerge, 14 days after application, rating scale 0-100
Method in brief: as §3

[22] = 250 g ai/ha, crop damage rating 0-100, 14 days after application
[23] = 250 g ai/ha, phytotoxicity rating 0-100, 14 days after application

## COc1c(Cl)cc(F)c(-n2c(=O)cc(C(F)(F)F)n(N)c2=O)c1NC(=O)C=Cc1ccccc1 [2-185]
[1]; 63 g ai/ha
  phytotoxicity rating RICE (crop damage): 20
[1]; 250 g ai/ha
  phytotoxicity rating RICE (crop damage): 40
[2]; 63 g ai/ha
  phytotoxicity rating CORN (crop damage): 0
[2]; 250 g ai/ha
  phytotoxicity rating CORN (crop damage): 5
[3]; 63 g ai/ha
  CHEAL phytotoxicity rating: 70
[3]; 250 g ai/ha
  CHEAL phytotoxicity rating: 100
[4]; 63 g ai/ha
  SETVI phytotoxicity rating: 0
[4]; 250 g ai/ha
  SETVI phytotoxicity rating: 20
[5]; 63 g ai/ha
  ECHCG phytotoxicity rating: 0
[5]; 250 g ai/ha
  ECHCG phytotoxicity rating: 0
[6]; 63 g ai/ha
  AMARE phytotoxicity rating: 80
[6]; 250 g ai/ha
  AMARE phytotoxicity rating: 100
[7]; 63 g ai/ha
  ABUTH phytotoxicity rating: 100
[7]; 250 g ai/ha
  ABUTH phytotoxicity rating: 100
[8]; 63 g ai/ha
  IPOHE phytotoxicity rating: 60
[8]; 250 g ai/ha
  IPOHE phytotoxicity rating: 80
[9]; 63 g ai/ha
  DIGSA phytotoxicity rating: 0
[9]; 250 g ai/ha
  DIGSA phytotoxicity rating: 10
[10]; 63 g ai/ha
  CASOB phytotoxicity rating: 40
[10]; 250 g ai/ha
  CASOB phytotoxicity rating: 60
[11]; 63 g ai/ha
  phytotoxicity rating CHEAL: 100
[11]; 250 g ai/ha
  phytotoxicity rating CHEAL: 100
[12]; 63 g ai/ha
  phytotoxicity rating SETVI: 30
[12]; 250 g ai/ha
  phytotoxicity rating SETVI: 50
[13]; 63 g ai/ha
  phytotoxicity rating ECHCG: 10
[13]; 250 g ai/ha
  phytotoxicity rating ECHCG: 10
[14]; 63 g ai/ha
  phytotoxicity rating ABUTH: 90
[14]; 250 g ai/ha
  phytotoxicity rating ABUTH: 100
[15]; 63 g ai/ha
  phytotoxicity rating IPOHE: 60
[15]; 250 g ai/ha
  phytotoxicity rating IPOHE: 60
[16]; 63 g ai/ha
  phytotoxicity rating DIGSA: 20
[16]; 250 g ai/ha
  phytotoxicity rating DIGSA: 40
[17]; 63 g ai/ha
  phytotoxicity rating SORHA: 20
[17]; 250 g ai/ha
  phytotoxicity rating SORHA: 20
[18]; 63 g ai/ha
  phytotoxicity rating CASOB: 0
[18]; 250 g ai/ha
  phytotoxicity rating CASOB: 60
[19]; 63 g ai/ha
  phytotoxicity rating AMARE: 100
[19]; 250 g ai/ha
  phytotoxicity rating AMARE: 100
[20]; 63 g ai/ha
  RICE phytotoxicity rating (crop damage): 20
[20]; 250 g ai/ha
  RICE phytotoxicity rating (crop damage): 35
[21]; 63 g ai/ha
  CORN phytotoxicity rating (crop damage): 0
[21]; 250 g ai/ha
  CORN phytotoxicity rating (crop damage): 5

## N#CCOc1c(Cl)cc(F)c(-n2c(=O)cc(C(F)(F)F)n(N)c2=O)c1NC(=O)c1ccc2ccccc2c1 [2-188]
[1]; [22]
  Pre-emerge Herbicidal Activity RICE: 10
[1]; 63 g ai/ha
  phytotoxicity rating RICE (crop damage): 10
[2]; [22]
  Pre-emerge Herbicidal Activity CORN: 0
[2]; 63 g ai/ha
  phytotoxicity rating CORN (crop damage): 0
[3]; 63 g ai/ha
  CHEAL phytotoxicity rating: 80
[3]; 250 g ai/ha
  CHEAL phytotoxicity rating: 100
[4]; 63 g ai/ha
  SETVI phytotoxicity rating: 10
[4]; 250 g ai/ha
  SETVI phytotoxicity rating: 20
[5]; 63 g ai/ha
  ECHCG phytotoxicity rating: 30
[5]; 250 g ai/ha
  ECHCG phytotoxicity rating: 40
[6]; 63 g ai/ha
  AMARE phytotoxicity rating: 85
[6]; 250 g ai/ha
  AMARE phytotoxicity rating: 90
[7]; 63 g ai/ha
  ABUTH phytotoxicity rating: 100
[7]; 250 g ai/ha
  ABUTH phytotoxicity rating: 100
[8]; 63 g ai/ha
  IPOHE phytotoxicity rating: 100
[8]; 250 g ai/ha
  IPOHE phytotoxicity rating: 100
[9]; 63 g ai/ha
  DIGSA phytotoxicity rating: 0
[9]; 250 g ai/ha
  DIGSA phytotoxicity rating: 10
[10]; 63 g ai/ha
  CASOB phytotoxicity rating: 55
[10]; 250 g ai/ha
  CASOB phytotoxicity rating: 90
[11]; [23]
  Pre-emerge Herbicidal Activity CHEAL: 100
[11]; 63 g ai/ha
  phytotoxicity rating CHEAL: 100
[12]; [23]
  Pre-emerge Herbicidal Activity SETVI: 50
[12]; 63 g ai/ha
  phytotoxicity rating SETVI: 30
[13]; [23]
  Pre-emerge Herbicidal Activity ECHCG: 60
[13]; 63 g ai/ha
  phytotoxicity rating ECHCG: 30
[14]; [23]
  Pre-emerge Herbicidal Activity ABUTH: 100
[14]; 63 g ai/ha
  phytotoxicity rating ABUTH: 90
[15]; [23]
  Pre-emerge Herbicidal Activity IPOHE: 90
[15]; 63 g ai/ha
  phytotoxicity rating IPOHE: 10
[16]; [23]
  Pre-emerge Herbicidal Activity DIGSA: 60
[16]; 63 g ai/ha
  phytotoxicity rating DIGSA: 10
[17]; [23]
  Pre-emerge Herbicidal Activity SORHA: 30
[17]; 63 g ai/ha
  phytotoxicity rating SORHA: 10
[18]; [23]
  Pre-emerge Herbicidal Activity CASOB: 0
[18]; 63 g ai/ha
  phytotoxicity rating CASOB: 0
[19]; [23]
  Pre-emerge Herbicidal Activity AMARE: 80
[19]; 63 g ai/ha
  phytotoxicity rating AMARE: 100
[20]; 63 g ai/ha
  RICE phytotoxicity rating (crop damage): 20
[20]; 250 g ai/ha
  RICE phytotoxicity rating (crop damage): 40
[21]; 63 g ai/ha
  CORN phytotoxicity rating (crop damage): 25
[21]; 250 g ai/ha
  CORN phytotoxicity rating (crop damage): 45

Source: patent US6355799B1, “Substituted benzene compounds, process for their preparation, and herbicidal and defoliant compositions containing them” (ISK Americas Incorporated, priority 1997, dated 2002)
